Patent US7776924B2, “Nitroaniline-based alkylating agents and their use as prodrugs” (Auckland Uniservices Limited, priority 2002, dated 2010)

Legend:
[1] = test system: WC14.10; experiment: Cytotoxicity in NTR-transfected (NR+) human colon cell line WC14.10; assay type: cell-based; details: for IC50: WC14.10 NTR-transfected, 18 h exposure; for Ratio = IC50(NR−)/IC50(NR+) Human colon: WIDR / WC14.10, 18 h exposure
[2] = test system: A549 human lung carcinoma cells; experiment: Cytotoxicity in oxic and anoxic wild-type A549 human lung carcinoma cells; assay type: cell-based; details: 4 h exposure; for IC50: anoxic, read-out: IC50 WT anoxic
[3] = test system: WIDR; experiment: Cytotoxicity in wild-type (NR−) human colon cell line WIDR; assay type: cell-based; details: 18 h exposure
[4] = test system: SKOV3; experiment: Cytotoxicity in wild-type (NR−) human ovarian cell line SKOV3; assay type: cell-based
[5] = test system: A549 transfected with human cytochrome P450 reductase (P450R); experiment: Cytotoxicity in oxic and anoxic A549 cells transfected with human cytochrome P450 reductase; assay type: cell-based; details: 4 h exposure; for IC50: anoxic
[6] = test system: SC3.2; experiment: Cytotoxicity in NTR-transfected (NR+) human ovarian cell line SC3.2; assay type: cell-based; details: for IC50: SC3.2 NTR-transfected, 18 h exposure; for Ratio = IC50(NR−)/IC50(NR+) Human Ovarian: SKOV3 / SC3.2, 18 h exposure
[7] = Friedlos et al., J. Med. Chem. 1997, 40, 1270; cited from earlier work

| SMILES | IC50 [1] [µM] | Ratio = IC50(NR−)/IC50(NR+) Human colon [1] | WT Ratio = IC50(aerobic)/IC50(anoxic) [2] | IC50 [2] [µM] | IC50 [3] [µM] | IC50 ([4]; 18 h exposure) [µM] | P450R ratio = IC50(aerobic)/IC50(anoxic) [5] | IC50 [5] [µM] | IC50 [6] [µM] | Ratio = IC50(NR−)/IC50(NR+) Human Ovarian [6] | IC50 ([1]; Homo sapiens) [µM] | IC50 ([3]; Homo sapiens) [µM] | IC50 ([4]; Homo sapiens, SK-OV-3, 18 h exposure) [µM] | IC50 ([6]; Homo sapiens) [µM] | melting point [°C] | potency as described in the literature [7] |
| --- | --- | --- | --- | --- | --- | --- | --- | --- | --- | --- | --- | --- | --- | --- | --- | --- |
| CS(=O)(=O)OCCN(CCBr)c1c(C(=O)NCCO)cc([N+](=O)[O-])cc1[N+](=O)[O-] [IIb3, 2-((2-Bromoethyl)-2-{[(2-hydroxyethyl)amino]carbonyl}-4,6-dinitroanilino)ethyl methanesulfonate] | 0.06 | 66 | 26 | 2.3 | 3.7 | 5.2 | 133 | 0.28 | 0.04 | 142 |  |  |  |  |  |  |
| COC(=O)CCNC(=O)c1cc([N+](=O)[O-])cc([N+](=O)[O-])c1N(CCCl)CCOS(C)(=O)=O [IIb8, Methyl 3-{[2-((2-chloroethyl){2-[(methylsulfonyl)oxy]ethyl}amino)-3,5-dinitrobenzoyl]amino}propanoate] |  | 13 |  |  |  |  |  |  |  | 51 | 0.36 | 4.3 | 9.7 | 0.19 | 128 to 130 |  |
| CS(=O)(=O)OCCN(CCCl)c1ccc([N+](=O)[O-])c(C(=O)NCCCO)c1[N+](=O)[O-] [IIc4, 2-((2-Chloroethyl)-3-{[(3-hydroxypropyl)amino]carbonyl}-2,4-dinitroanilino)ethyl methanesulfonate] | 2.6 | 215 | 26 | 82 | 392 | 800 | 108 | 7.3 | 1.6 | 549 |  |  |  |  |  |  |
| CS(=O)(=O)OCCN(CCBr)c1c([N+](=O)[O-])ccc(C(=O)NCCCO)c1[N+](=O)[O-] [IIc5, 2-((2-Bromoethyl)-3-{[(3-hydroxypropyl)amino]carbonyl}-2,6-dinitroanilino)ethyl methanesulfonate] | 0.85 | 301 | 30 | 52 | 209 | 280 | 134 | 4.5 | 0.57 | 497 |  |  |  |  |  |  |
| CS(=O)(=O)OCCN(CCCl)c1cc(C(N)=O)c([N+](=O)[O-])cc1[N+](=O)[O-] [No 5, 2-[5-(aminocarbonyl)(2-chloroethyl)-2,4-dinitroanilino]ethyl methanesulfonate] |  |  |  |  |  |  |  |  |  |  |  |  |  |  |  | not sufficiently potent for a full biological evaluation to be conducted |
